Experimental data as given in patent US7598412B2, “Modulators of ATP-binding cassette transporters” (Vertex Pharmaceuticals Incorporated, priority 2003, dated 2009).
Where “and” joins values, the source holds several entries; their conditions need not be identical. Identical values can stand only once.

Test system: cAMP levels in FRT cells
Assay: Tropix assay for measurement of cAMP in FRT cells
Format: cell-based, rat
Settings: n=4; for cAMP generated, average % of cAMP produced by 20 μM of forskolin: 15 minutes incubation
Method: In the following example, the effect on cAMP levels by three structurally similar compounds from Table 1 were determined using the cAMP levels from 20 μM forskolin as the normalized reference measure.
The level of cAMP in FRT cells following 0.5 μM forskolin or test compound application was determined using a commercially available chemiluminiscent immunoassay system for mammalian cells called Tropix® (Applied Biosystems, Bedford, Mass.). Briefly, FRT cells were incubated for 15 minutes with a test compound in the presence and absence of 0.5 μM forskolin. The compounds were aspirated and the cells were then lysed and transferred along with the lysis buffer to a 96-well Tropix® ELISA plate. A cAMP-Alk Phos conjugate is then added to the assay plate, followed by the addition of cAMP anti-body. After several wash and aspiration steps, Sapphire blue II solution is added and the […], and the cAMP concentrations were determined using a cAMP standard curve that was present in each plate.

[1] = compound in the presence of 0.5 μM forskolin, FRT cells

Row | Compound | cAMP generated, average % of cAMP produced by 20 μM of forskolin (compound alone, FRT cells) | change of cAMP compared with the DMSO control (compound alone) | cAMP generated, average % of cAMP produced by 20 μM of forskolin [1] | change of cAMP compared with the 0.5 μM forskolin control (compound in the presence of 0.5 μM forskolin) | cAMP of the 0.5 μM forskolin control, % of 20 μM forskolin (0.5 μM forskolin alone, FRT cells)
1 | COc1ccc(C(C)(C)CNC(=O)c2cc3ccccc3o2)cc1OC [Compound 34, N-(2-(3,4-dimethoxyphenyl)-2-methylpropyl)benzofuran-2-carboxamide] | 24.4±1.1% | not a significant increase | 61.5±1.8% | significant increase | –
2 | COc1ccc(C2(CNC(=O)c3cc4ccccc4o3)CCCC2)cc1OC [Compound 7, N-((1-(3,4-dimethoxyphenyl)-cyclopentyl)methyl)benzofuran-2-carboxamide] | 40.3±3.5% | – | 92.3±2.7% | – | –
3 | C=C[C@@]1(C)CC(=O)[C@]2(O)[C@@]3(C)[C@@H](O)CCC(C)(C)[C@@H]3[C@H](O)[C@H](OC(C)=O)[C@@]2(C)O1 [forskolin, reference compound] | – | – | – | – | 45.9±3.0% and 32.2±3.2%
